Results published in ChEMBL document CHEMBL1128022, “Potent and selective inhibitors of gelatinase-A 2. carboxylic and phosphonic acid derivatives” (Bioorg Med Chem Lett, 1994).

Experiments:
[1] = target: 72 kDa type IV collagenase (Homo sapiens, UniProt P08253); assay: Inhibition of the Gelatinase-A enzyme was determined from purified NSO cells.
Interstitial collagenase = target: T1, Interstitial collagenase (Homo sapiens, UniProt P03956); assay: Inhibition of the Collagenase enzyme was determined from purified NSO cells.
T1 sequence (P03956 whole entry): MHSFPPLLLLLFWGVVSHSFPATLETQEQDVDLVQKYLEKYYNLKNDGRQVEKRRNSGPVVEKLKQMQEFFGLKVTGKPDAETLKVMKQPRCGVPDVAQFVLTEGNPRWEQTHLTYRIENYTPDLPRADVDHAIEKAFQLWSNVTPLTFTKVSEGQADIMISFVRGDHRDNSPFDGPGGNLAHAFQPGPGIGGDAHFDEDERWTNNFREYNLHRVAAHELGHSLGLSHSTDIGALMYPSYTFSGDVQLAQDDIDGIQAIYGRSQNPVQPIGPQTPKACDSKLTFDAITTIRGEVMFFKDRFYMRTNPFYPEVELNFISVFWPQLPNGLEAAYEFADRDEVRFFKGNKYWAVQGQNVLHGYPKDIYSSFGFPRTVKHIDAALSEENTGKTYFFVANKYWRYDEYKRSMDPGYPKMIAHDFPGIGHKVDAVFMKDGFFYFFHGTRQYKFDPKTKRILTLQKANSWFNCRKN

Stromelysin-1 = Stromelysin-1 (Homo sapiens, UniProt P08254); assay: Inhibition of the Stromelysin enzyme was determined from purified NSO cells.
Stromelysin-1, sequence (P08254 whole entry): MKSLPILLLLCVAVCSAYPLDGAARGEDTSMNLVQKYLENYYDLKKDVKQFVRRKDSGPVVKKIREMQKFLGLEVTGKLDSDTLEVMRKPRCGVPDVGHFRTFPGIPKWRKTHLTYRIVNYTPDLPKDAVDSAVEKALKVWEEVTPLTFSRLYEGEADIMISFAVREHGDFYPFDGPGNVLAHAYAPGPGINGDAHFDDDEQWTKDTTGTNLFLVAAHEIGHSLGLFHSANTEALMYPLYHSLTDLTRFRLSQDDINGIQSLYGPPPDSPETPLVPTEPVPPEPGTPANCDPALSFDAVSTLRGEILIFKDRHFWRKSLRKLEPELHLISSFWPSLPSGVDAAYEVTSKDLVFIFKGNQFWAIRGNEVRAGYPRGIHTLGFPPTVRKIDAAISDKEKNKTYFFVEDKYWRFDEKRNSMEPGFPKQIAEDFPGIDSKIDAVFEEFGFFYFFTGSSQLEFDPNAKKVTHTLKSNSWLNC

72 kDa type IV collagenase, sequence (P08253 whole entry): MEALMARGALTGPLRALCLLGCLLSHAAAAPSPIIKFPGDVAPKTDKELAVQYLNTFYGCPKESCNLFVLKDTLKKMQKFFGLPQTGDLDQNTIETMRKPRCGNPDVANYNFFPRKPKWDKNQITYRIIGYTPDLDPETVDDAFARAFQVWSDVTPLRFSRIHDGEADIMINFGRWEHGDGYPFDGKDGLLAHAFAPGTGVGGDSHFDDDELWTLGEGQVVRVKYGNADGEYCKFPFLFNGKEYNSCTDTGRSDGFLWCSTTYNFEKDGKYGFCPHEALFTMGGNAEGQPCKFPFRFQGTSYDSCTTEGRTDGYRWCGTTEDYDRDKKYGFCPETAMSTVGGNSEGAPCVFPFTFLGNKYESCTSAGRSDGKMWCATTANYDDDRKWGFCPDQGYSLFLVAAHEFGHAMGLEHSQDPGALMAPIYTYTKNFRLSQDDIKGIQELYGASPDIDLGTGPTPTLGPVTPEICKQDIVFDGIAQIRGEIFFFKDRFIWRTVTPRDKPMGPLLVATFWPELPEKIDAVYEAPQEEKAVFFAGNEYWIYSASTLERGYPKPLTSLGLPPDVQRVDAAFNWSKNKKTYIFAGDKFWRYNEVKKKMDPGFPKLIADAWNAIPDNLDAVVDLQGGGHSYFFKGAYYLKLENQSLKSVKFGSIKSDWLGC

Structure (SMILES) | Ki [1] | Ki (Interstitial collagenase) | Ki (Stromelysin-1)
O=C(C[C@@H](CCCc1ccccc1)C(=O)N[C@@H](CC1CCCCC1)C(=O)NCCc1ccccc1)NO | 0.06 nM |  | 
Cc1ccc(CCC[C@H](CC(=O)O)C(=O)N[C@@H](CC2CCCCC2)C(=O)NCCC(=O)O)cc1 | 3.82 nM | 100000 nM | 321 nM
NS(=O)(=O)c1ccc(CCNC(=O)[C@H](CC2CCCCC2)NC(=O)[C@H](CCCc2ccccc2)CC(=O)O)cc1 | 6.4 nM | 40200 nM | 952 nM
COC(=O)CCNC(=O)[C@H](CC1CCCCC1)NC(=O)[C@H](CCCc1ccc(C)cc1)CC(=O)O | 1.17 nM | 41400 nM | 353 nM
Cc1ccc(CCC[C@H](CC(=O)O)C(=O)N[C@@H](CC2CCCCC2)C(=O)NCCCCN2CCOCC2)cc1 | 10.3 nM | 55000 nM | 358 nM
Cc1ccc(CCC[C@H](CP(=O)(O)O)C(=O)N[C@@H](CC2CCCCC2)C(=O)NCCc2ccccc2)cc1 (stereo in doubt; form 1) | 366 nM | 100000 nM | 21200 nM
NC(=O)CCCNC(=O)[C@H](CC1CCCCC1)NC(=O)[C@H](CCCc1ccccc1)CC(=O)O | 3.06 nM | 28400 nM | 1060 nM
NS(=O)(=O)c1ccc(CCNC(=O)[C@H](CC2CCCCC2)NC(=O)[C@H](CCCc2ccc(Cl)cc2)CC(=O)O)cc1 | 1.03 nM | 55000 nM | 358 nM
Cc1ccc(CCC[C@H](CP(=O)(O)O)C(=O)N[C@@H](CC2CCCCC2)C(=O)NCCc2ccccc2)cc1 (stereo in doubt; form 2) | 2.5 nM | 17000 nM | 277 nM
Cc1ccc(CCC[C@H](CC(=O)O)C(=O)N[C@@H](CC2CCCCC2)C(=O)NCCc2ccccc2)cc1 | 1 nM | 22100 nM | 472 nM
COc1ccc(CCC[C@H](CC(=O)O)C(=O)N[C@@H](CC2CCCCC2)C(=O)NCCc2ccc(S(N)(=O)=O)cc2)cc1 | 1.83 nM | 10000 nM | 1110 nM
O=C(O)CCNC(=O)[C@H](CC1CCCCC1)NC(=O)[C@H](CCCc1ccccc1)CP(=O)(O)O | 46.5 nM | 22100 nM | 952 nM
O=C(N[C@@H](CC1CCCCC1)C(=O)NCCc1ccccc1)[C@H](CCCc1ccccc1)CP(=O)(O)O | 18.9 nM | 25000 nM | 701 nM
Cc1ccc(CCC[C@H](CC(=O)O)C(=O)N[C@@H](CC2CCCCC2)C(=O)NCCc2ccc(S(N)(=O)=O)cc2)cc1 | 0.9 nM | 47800 nM | 384 nM
O=C(O)C[C@H](CCCc1ccccc1)C(=O)N[C@@H](CC1CCCCC1)C(=O)NCCc1ccccc1 |  |  | 20000 nM
CC(C)Cc1ccc(CCC[C@H](CC(=O)O)C(=O)N[C@@H](CC2CCCCC2)C(=O)NCCc2ccccc2)cc1 | 157 nM | > 10000 nM | > 10000 nM
NC(=O)[C@H](CC1CCCCC1)NC(=O)[C@H](CCCc1ccccc1)CC(=O)O | 123 nM | 100000 nM | 3120 nM
O=C(N[C@@H](CC1CCCCC1)C(=O)NCCN1CCOCC1)[C@H](CCCc1ccccc1)CP(=O)(O)O | 812 nM | 100000 nM | 8400 nM
